Experimental findings from ChEMBL document CHEMBL1156488, “Selective induction of chemotherapy resistance of mammary tumors in a conditional mouse model for hereditary breast cancer” (2007) are described below.

Experiment [1] relates to Mus musculus. The experiment in a line: Antitumor activity in Brca1 and p53 deficient K14cre mouse hereditary breast cancer model at 25 mg/kg, iv. Format: functional, organism-based. Also noted: dose 25 mg/kg.
Experiment [2] can be described thus: Antitumor activity in Brca1 and p53 deficient mouse mammary tumor cell xenografted mouse hereditary breast cancer model assessed as median survival at 25 mg/kg, iv. Format: functional.
The test system of experiment [3] is Mus musculus. As to the kind of experiment: Antitumor activity in doxorubicin-sensitive Brca1 and p53 deficient mouse mammary tumor cell xenografted mouse hereditary breast cancer model at 25 mg/kg, iv. Format: functional, organism-based. Also noted: dose 25 mg/kg.
A further experiment has as its system T*23. As to the kind of experiment: Antitumor activity in doxorubicin-resistant Brca1 and p53 deficient mouse mammary tumor T*23 cell xenografted mouse hereditary breast cancer model at 25 mg/kg, iv. Also noted: dose 25 mg/kg. Format: functional, organism-based.
Experiment [4] deals with Mus musculus. As to the kind of experiment: Antitumor activity in Brca1 and p53 deficient K14cre mouse hereditary breast cancer model at 5 mg/kg, iv. Format: functional, organism-based. On the set-up: dose 5 mg/kg.
The nature of experiment [5]: Antitumor activity in Brca1 and p53 deficient mouse mammary tumor cell xenografted mouse hereditary breast cancer model assessed as median survival at 5 mg/kg, iv. Format: functional.

Active and inactive are the calls of the source. No cut-off for these calls is given here.

As to `CC(=O)O[C@@]12CO[C@@H]1C[C@H](O)[C@@]1(C)C(=O)[C@H](O)C3=C(C)[C@@H](OC(=O)[C@H](O)[C@@H](NC(=O)OC(C)(C)C)c4ccccc4)C[C@@](O)([C@@H](OC(=O)c4ccccc4)[C@H]21)C3(C)C.O.O.O` [DOCETAXEL], the result in the experiment with Mus musculus [1] and in the experiment with Mus musculus [3] was Active. Further, the Survival in experiment [2] worked out at 44 days. Also, in the experiment on T*23, the result was inactive.
Turning to `COc1cccc2c1C(=O)c1c(O)c3c(c(O)c1C2=O)C[C@@](O)(C(=O)CO)C[C@@H]3O[C@H]1C[C@H](N)[C@H](O)[C@H](C)O1` [DOXORUBICIN], the outcome in the experiment on Mus musculus [4] was Active. In addition, the Survival in experiment [5] is 63 days.
